# Like-named read-outs stand apart in the source and are kept apart here.
# How the values were obtained:
# Type in all cases: cell-based
# ΔF508-CFTR [1] = biological target: T1, ΔF508-CFTR (Homo sapiens, UniProt P13569, DEL508-508); assay: CFTR cell surface levels using HRP-tagged ΔF508-CFTR expressing CFBE cells, in the presence of a co-corrector; conditions: HRP-tagged ΔF508-CFTR CFBE cells, in the presence of 3 μM co-corrector; for EC50: read-out: EC50
# T1 construct: host or cells: CFBE41o-, doxycycline-inducible
# Outline: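 Chemiluminescent read-out of surface HRP (15 min, dark) after PBS washes. Activity is normalized as 100×(sample−DMSO)/(3 μM co-corrector alone−DMSO).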
# ΔF508-CFTR [2] = biological target: T1, ΔF508-CFTR; assay: CFTR cell surface levels using HRP-tagged ΔF508-CFTR expressing CFBE cells, intrinsic corrector capacity; set-up: % Activation: concentration or dose not given beside the values; conditions: HRP-tagged ΔF508-CFTR expressing CFBE41o- cells, compound alone (intrinsic corrector capacity), 20 hours at 33° C.; for EC50: read-out: EC50
# Outline: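 Read-out: chemiluminescent HRP activity of ECL4-HRP-tagged ΔF508-CFTR at the cell surface, 15 min substrate in dark. Normalized as 100×(sample−DMSO)/(positive control−DMSO).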
# CFTR ΔF508 = biological target: T2, CFTR ΔF508 (Homo sapiens, UniProt P13569, DEL508-508); assay: Chronic TECC assay, primary bronchial epithelial cells of CF patients homozygous for CFTR ΔF508 (corrector, co-corrector and potentiator); conditions: for % Activity at 1 μM (AUC**) / % Activity at 1 μM (Ieq*): test compound at 1 μM; for % Activity at 3 μM (AUC**): test compound at 3 μM
# T2 construct: bronchial epithelial cells isolated from CF patients homozygous for the CFTR ΔF508 mutation; McGill University; Asterand; University of North Carolina hAEC-CF; host or cells: primary human bronchial epithelial cells from CF patients homozygous for ΔF508, differentiated at air-liquid interface
# Description: Primary Bronchial Epithelial Cells Protocol
# The TECC (Tranepithelial Clamp Circuit, EP-design) assay measures the functionality of the cystic fibrosis Transmembrane Conductance regulator (CFTR) by measuring the short circuit current (Isc) generated over the basolateral and apical membrane of lung epithelial cells. In TECC the transepithelial potential PD and transepithelial resistance (Rt) are measured in an open circuit and transformed to Ieq using Ohm's law. 24 Wells can be measured simultaneously allowing a higher throughput compared to Ussing chambers.
# For this purpose, bronchial epithelial cells isolated from CF patients homozygous for the CFTR ΔF508 mutation (hAEC-CF, Epithelix, Geneva, Switzerland; McGill University, Montreal, Qc; Asterand, Detroit, Mich.; University of North Carolina, Chapel Hill, N.C.) are plated on type IV collagen-coated Transwell® supports (Costar).
# For electrophysiological recording of the “chronic” experiments, the human airway epithelia are mounted in the TECC heating plate for electrophysiological measurement and kept at 37° C. The epithelia are bathed in a NaCl-Ringer solution (120 mM NaCl, 25 mM NaHCO3, 1.2 mM CaCl2, 1.2 mM MgCl2, 0.8 mM KH2PO4, 0.8 mM K2HPO4, pH 7.4, 5 mM glucose) on both the basolateral and apical sides. Test compounds (corrector, co-corrector, 4-[(2R,4R)-4-({[1-(2,2-difluoro-1,3-benzodioxol-5-yl)cyclopropyl]carbonyl}amino)-7-(difluoromethoxy)-3,4-dihydro-2H-chromen-2-yl]benzoic acid, and potentiator, N-(3-carbamoyl-5,5,7,7-tetramethyl-4,7-dihydro-5H-thieno[2,3-c]pyran-2-yl)-1H-pyrazole-5-carboxamide), are re-added to the recording solution prior to measurement. […] Apical amiloride is used to inhibit the endogenous ENaC currents while forskolin is applied on both apical and basolateral side to stimulate CFTR. Measurements are done during a 20 minute timeframe with recordings every 2 minutes. The increase in Ieq is used as a measure for the increased CFTR activity, EC50 values can be generated by measuring impact of different concentrations of compound on Ieq on primary cells, for this purpose each transwell is treated with a different compound concentration. […] Raw data were normalized to percentage activity values using the equation: 100×(Sample−Negative control)/(Positive control−Negative Control).
# [3] = chronic TECC, AUC = full area under the curve upon forskolin stimulation
# [4] = chronic TECC, AUC = full area under the curve upon forskolin stimulation, read-out: EC50 (nM) (AUC**)
# [5] = chronic TECC, Ieq = calculations based on the maximum current, read-out: EC50 (nM) (Ieq*)
# [6] = chronic TECC, Ieq = calculations based on the maximum current
# T2 sequence (P13569 with tags, fused parts or gaps DEL508-508): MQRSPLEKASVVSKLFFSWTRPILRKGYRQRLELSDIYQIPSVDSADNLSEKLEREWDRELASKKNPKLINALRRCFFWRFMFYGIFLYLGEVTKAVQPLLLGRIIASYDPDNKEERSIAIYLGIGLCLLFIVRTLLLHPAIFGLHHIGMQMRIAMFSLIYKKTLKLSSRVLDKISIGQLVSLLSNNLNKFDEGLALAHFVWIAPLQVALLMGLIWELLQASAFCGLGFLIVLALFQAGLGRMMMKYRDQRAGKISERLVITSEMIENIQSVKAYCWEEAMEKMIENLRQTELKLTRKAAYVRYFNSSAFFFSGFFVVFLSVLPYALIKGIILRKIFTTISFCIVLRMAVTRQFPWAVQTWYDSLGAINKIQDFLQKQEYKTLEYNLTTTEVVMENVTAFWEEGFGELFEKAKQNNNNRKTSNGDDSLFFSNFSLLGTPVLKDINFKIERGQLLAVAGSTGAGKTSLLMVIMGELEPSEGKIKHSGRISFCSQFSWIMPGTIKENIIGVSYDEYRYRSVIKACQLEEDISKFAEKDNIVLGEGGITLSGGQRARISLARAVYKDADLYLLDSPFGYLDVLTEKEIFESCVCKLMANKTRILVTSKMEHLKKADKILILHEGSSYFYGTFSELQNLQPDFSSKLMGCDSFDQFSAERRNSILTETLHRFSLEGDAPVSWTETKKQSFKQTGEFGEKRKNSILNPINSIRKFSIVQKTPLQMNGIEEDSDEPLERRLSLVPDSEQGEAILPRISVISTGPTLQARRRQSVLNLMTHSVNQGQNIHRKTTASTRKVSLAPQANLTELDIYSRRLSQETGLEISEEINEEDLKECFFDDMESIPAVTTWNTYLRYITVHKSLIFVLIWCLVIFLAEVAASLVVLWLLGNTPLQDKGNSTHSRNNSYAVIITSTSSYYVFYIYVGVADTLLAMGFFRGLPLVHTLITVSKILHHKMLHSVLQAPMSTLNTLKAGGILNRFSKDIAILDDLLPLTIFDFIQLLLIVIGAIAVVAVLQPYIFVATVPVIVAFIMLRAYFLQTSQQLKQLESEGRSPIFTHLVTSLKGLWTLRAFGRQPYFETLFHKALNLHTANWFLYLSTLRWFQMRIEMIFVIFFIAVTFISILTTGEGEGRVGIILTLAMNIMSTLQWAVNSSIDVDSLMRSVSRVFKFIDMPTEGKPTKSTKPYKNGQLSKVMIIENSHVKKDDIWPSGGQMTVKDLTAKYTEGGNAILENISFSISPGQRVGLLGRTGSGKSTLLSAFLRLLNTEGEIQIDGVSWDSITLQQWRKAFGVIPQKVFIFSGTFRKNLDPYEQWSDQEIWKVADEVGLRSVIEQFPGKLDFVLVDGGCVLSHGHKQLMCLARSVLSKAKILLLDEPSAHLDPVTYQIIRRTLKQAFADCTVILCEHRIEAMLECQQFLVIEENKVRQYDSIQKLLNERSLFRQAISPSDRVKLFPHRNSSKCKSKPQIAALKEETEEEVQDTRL
# T1 sequence (P13569 with tags, fused parts or gaps DEL508-508): as above
SMILES,% Activation (ΔF508-CFTR [1]),EC50 (ΔF508-CFTR [1]),% Activation (ΔF508-CFTR [2]),EC50 (ΔF508-CFTR [2]),% Activity at 1 μM (AUC**) (CFTR ΔF508; [3]),EC50 (CFTR ΔF508; [4]),other results
"CN(C)S(=O)(=O)NC(=O)c1cc(N2CCC(N3CCC(F)C3)CC2)c2c(C3CCC3)nn(-c3ccc(F)cc3)c2n1 (stereo not drawn) [Compound 541, 3-cyclobutyl-N-(dimethylsulfamoyl)-1-(4-fluorophenyl)-4-[4-(3-fluoropyrrolidin-1-yl)piperidin-1-yl]-1H-pyrazolo[3,4-b]pyridine-6-carboxamide]",457.2%,115 nM,231.7%,444 nM,320%,,
"CC(C)c1nn(-c2ccc(F)cc2)c2nc(C(=O)NS(C)(=O)=O)cc(N3CCC(C4CCN(C)CC4)CC3)c12 [Compound 320, 1-(4-fluorophenyl)-N-(methanesulfonyl)-4-(1'-methyl[4,4'-bipiperidin]-1-yl)-3-(propan-2-yl)-1H-pyrazolo[3,4-b]pyridine-6-carboxamide]",590.6%,82.7 nM,376.35%,309 nM,215.3%,,
"CC(C)c1nn(-c2ccc(F)cc2)c2nc(C(=O)NS(C)(=O)=O)cc(N3CCC4(CCO4)CC3)c12 [Compound 177, 1-(4-fluorophenyl)-N-(methanesulfonyl)-4-(1-oxa-7-azaspiro[3.5]nonan-7-yl)-3-(propan-2-yl)-1H-pyrazolo[3,4-b]pyridine-6-carboxamide]",263.9%,385 nM,99.405%,830 nM,419.90%,> 100 nM,
"CC(C)c1nn(-c2ccnc(N3CCCC3)c2)c2nc(C(=O)NS(C)(=O)=O)cc(-c3ccc(N4CCC(C#N)CC4)nc3)c12 [Compound 158, 4-[6-(4-cyanopiperidin-1-yl)pyridin-3-yl]-N-(methanesulfonyl)-3-(propan-2-yl)-1-[2-(pyrrolidin-1-yl)pyridin-4-yl]-1H-pyrazolo[3,4-b]pyridine-6-carboxamide]",512.45%,267 nM,359.1%,622 nM,370.9%,,
"COCC1CCN(c2cc(C(=O)NS(C)(=O)=O)nc3c2c(C(C)C)nn3-c2ccnc(N3CCOCC3)n2)CC1 [Compound 279, N-(methanesulfonyl)-4-[4-(methoxymethyl)piperidin-1-yl]-1-[2-(morpholin-4-yl)pyrimidin-4-yl]-3-(propan-2-yl)-1H-pyrazolo[3,4-b]pyridine-6-carboxamide]",530.6%,227 nM,308.4%,534 nM,,109 nM,
"COC(=O)N1CCC2CN(c3cc(C(=O)NS(C)(=O)=O)nc4c3c(C3CCC3)nn4-c3ccccc3)CCC21 (stereo not drawn) [Compound 215, methyl 5-{3-cyclobutyl-6-[(methanesulfonyl)carbamoyl]-1-phenyl-1H-pyrazolo[3,4-b]pyridin-4-yl}octahydro-1H-pyrrolo[3,2-c]pyridine-1-carboxylate]",569.35%,47.9 nM,374.57%,274 nM,320%,45 nM,
"COC1CCN(C2CCN(c3cc(C(=O)NS(=O)(=O)N(C)C)nc4c3c(C3CCC3)nn4-c3ccc(F)cc3)CC2)CC1 [Compound 381, 3-cyclobutyl-N-(dimethylsulfamoyl)-1-(4-fluorophenyl)-4-(4-methoxy[1,4'-bipiperidin]-1'-yl)-1H-pyrazolo[3,4-b]pyridine-6-carboxamide]",,,,,,4100 nM,% Activity at 3 μM (AUC**) (CFTR ΔF508; [3]): 441%
"CN(C)S(=O)(=O)NC(=O)c1cc(N2CCC(N3CCOCC3)CC2)c2c(C3CCC3)nn(-c3ccc(F)cc3)c2n1 [Compound 408, 3-cyclobutyl-N-(dimethylsulfamoyl)-1-(4-fluorophenyl)-4-[4-(morpholin-4-yl)piperidin-1-yl]-1H-pyrazolo[3,4-b]pyridine-6-carboxamide]",,,,,430%,21 nM,
"COCCN(C)c1ccc(-c2cc(C(=O)NS(C)(=O)=O)nc3c2c(C2CCC2)nn3-c2ccccc2)cc1 [Compound 75, 3-cyclobutyl-N-(methanesulfonyl)-4-{4-[(2-methoxyethyl)(methyl)amino]phenyl}-1-phenyl-1H-pyrazolo[3,4-b]pyridine-6-carboxamide]",,,,,,,EC50 (CFTR ΔF508; [5]): 30 nM; % Activity at 1 μM (Ieq*) (CFTR ΔF508; [6]): 316%
"COCCN1CCN(c2ccc(-c3cc(C(=O)NS(=O)(=O)N(C)C)nc4c3c(C3CCC3)nn4C3CCCCC3)cn2)CC1 [Compound 552, 3-cyclobutyl-1-cyclohexyl-N-(dimethylsulfamoyl)-4-{6-[4-(2-methoxyethyl)piperazin-1-yl]pyridin-3-yl}-1H-pyrazolo[3,4-b]pyridine-6-carboxamide]",364.2%,130 nM,,,235.2857%,,
"CC(C)Oc1nn(C2CCCCC2)c2nc(C(=O)NS(=O)(=O)N(C)C)cc(-c3ccc(N4CCN(C5CC5)CC4)cc3)c12 [Compound 559, 1-cyclohexyl-4-[4-(4-cyclopropylpiperazin-1-yl)phenyl]-N-(dimethylsulfamoyl)-3-[(propan-2-yl)oxy]-1H-pyrazolo[3,4-b]pyridine-6-carboxamide]",291.03%,154 nM,,,231.6378%,,
"CS(=O)(=O)NC(=O)c1cc(N2CCC(N3CCOCC3)CC2)c2c(C3CCC3)nn(-c3ccccc3)c2n1 [Compound 328, 3-cyclobutyl-N-(methanesulfonyl)-4-[4-(morpholin-4-yl)piperidin-1-yl]-1-phenyl-1H-pyrazolo[3,4-b]pyridine-6-carboxamide]",,,,,,,EC50 (CFTR ΔF508): 96 nM
"COCCN(C)c1ccc(-c2cc(C(=O)NS(C)(=O)=O)nc3c2c(C2CCC2)nn3-c2ccccc2)cn1 [Compound 63, 3-cyclobutyl-N-(methanesulfonyl)-4-{6-[(2-methoxyethyl)(methyl)amino]pyridin-3-yl}-1-phenyl-1H-pyrazolo[3,4-b]pyridine-6-carboxamide]",,,,,,,EC50 (CFTR ΔF508; [5]): 40 nM; % Activity at 1 μM (Ieq*) (CFTR ΔF508; [6]): 325%
"CN(C)S(=O)(=O)NC(=O)c1cc(OCC2CCOCC2)c2c(C3CCC3)nn(-c3ccccc3)c2n1 [Compound 334, 3-cyclobutyl-N-(dimethylsulfamoyl)-4-[(oxan-4-yl)methoxy]-1-phenyl-1H-pyrazolo[3,4-b]pyridine-6-carboxamide]",,,121.75%,167 nM,,,% Activity at 3 μM (AUC**) (CFTR ΔF508; [3]): 345.13%
"COC1CCN(c2cc(C(=O)NS(C)(=O)=O)nc3c2c(C2CCC2)nn3-c2ccccc2)CC1 [Compound 142, 3-cyclobutyl-N-(methanesulfonyl)-4-(4-methoxypiperidin-1-yl)-1-phenyl-1H-pyrazolo[3,4-b]pyridine-6-carboxamide]",,,,,250%,< 300 nM,
"CS(=O)(=O)NC(=O)c1cc(N2CCC(N3CCOCC3)CC2)c2c(C3CCC3)nn(-c3ccc(F)cc3)c2n1 [Compound 421, 3-cyclobutyl-1-(4-fluorophenyl)-N-(methanesulfonyl)-4-[4-(morpholin-4-yl)piperidin-1-yl]-1H-pyrazolo[3,4-b]pyridine-6-carboxamide]",,,,,193.3333%,45.6 nM,

# From US10259810B2, “N-sulfonylated pyrazolo[3,4-b]pyridin-6-carboxamides and method of use” (AbbVie S.à.r.l., priority 2015, dated 2019)
